The values below are quoted from earlier work in US6486129B1, “Antithrombotic compounds” (Akzo Nobel N.V., priority 1998, dated 2002).

The target of this data set is thrombin (Homo sapiens, UniProt P00734). To be noted: background description of prior art.

As to “Nα-(2-naphthylsulfonyl)-glycyl-4-amidinophenylaianinpiperidide [NAPAP]”, the thrombin specificity result is on record as “low thrombin specificity”.
